Test results reported in PubChem BioAssay (NCI).
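1) Cells in 96-well plates. 2) Compound, 48 h, 5 concentrations. 3) Linear interpolation between surrounding doses. 4) Unreached endpoint = highest concentration. At the GI50, growth is halved. TGI denotes the concentration required for complete inhibition of growth.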

Columns and labels:
Experiment in all cases: NCI anticancer screen, dose series, 48 h
[1] = tested on: HT29 colon
[2] = tested on: SK-MEL-28 melanoma
[3] = tested on: EKVX NSCLC
[4] = tested on: U251 CNS
[5] = tested on: UACC-257 melanoma
[6] = tested on: SF-539 CNS
[7] = tested on: HOP-92 NSCLC
[8] = tested on: MALME-3M melanoma
[9] = tested on: TK-10 renal
[10] = tested on: NCI/ADR-RES ovarian
[11] = tested on: OVCAR-4 ovarian
[12] = tested on: M14 melanoma
[13] = tested on: A549 NSCLC
[14] = tested on: SR leukemia
[15] = tested on: SF-268 CNS
[16] = tested on: LOX IMVI melanoma
[17] = tested on: MDA-MB-435
[18] = tested on: ACHN renal
[19] = tested on: RXF 393 renal
[20] = tested on: NCI-H460 lung
[21] = tested on: HL-60(TB) leukemia
[22] = tested on: HCT-116 colon
[23] = tested on: PC-3 prostate
[24] = tested on: HCC-2998 colon
[25] = tested on: NCI-H226 lung
[26] = tested on: UO-31 renal
[27] = tested on: CAKI-1 renal
[28] = tested on: KM12 colon
[29] = tested on: 786-0 renal
[30] = tested on: SN12C renal

Question: How did the TGI [1] turn out when `CC1(C)CC[C@]2(C(=O)Nc3ccccc3)CC[C@]3(C)C(=CC[C@@H]4[C@@]5(C)CC[C@H](N)C(C)(C)[C@@H]5CC[C@]43C)[C@H]2C1` was run?
Answer: Its TGI is 39.9 µM.

Question: What about the GI50 [2] of the same compound?
Answer: The GI50 was 17.5 µM.

Question: What about the TGI [2] of the same compound?
Answer: Its TGI is 31.7 µM.

Question: And the GI50 [3]?
Answer: The GI50 was 15.6 µM.

Question: And the TGI [3]?
Answer: The TGI was 30.4 µM.

Question: And the GI50 [4]?
Answer: Its GI50 is 17.5 µM.

Question: What about the TGI [4] of the same compound?
Answer: Its TGI is 35.1 µM.

Question: What about the GI50 [5] of the same compound?
Answer: The GI50 was 15.8 µM.

Question: And the TGI [5]?
Answer: The TGI was 32.2 µM.

Question: And the GI50 [6]?
Answer: Its GI50 is 15.4 µM.

Question: What about the TGI [6] of the same compound?
Answer: The TGI was 29.1 µM.

Question: And the GI50 [7]?
Answer: Its GI50 is 11.5 µM.

Question: What about the TGI [7] of the same compound?
Answer: The TGI was 26.1 µM.

Question: What about the GI50 [8] of the same compound?
Answer: The GI50 was 16.4 µM.

Question: What about the TGI [8] of the same compound?
Answer: Its TGI is 30.3 µM.

Question: And the GI50 [9]?
Answer: The GI50 was 17.4 µM.

Question: And the TGI [9]?
Answer: Its TGI is 33.3 µM.

Question: And the GI50 [10]?
Answer: Its GI50 is 16.2 µM.

Question: And the TGI [10]?
Answer: Its TGI is 31.9 µM.

Question: And the GI50 [11]?
Answer: The GI50 was 15.8 µM.

Question: And the TGI [11]?
Answer: Its TGI is 31.4 µM.

Question: And the GI50 [12]?
Answer: Its GI50 is 17.6 µM.

Question: And the TGI [12]?
Answer: Its TGI is 33.8 µM.

Question: And the GI50 [13]?
Answer: The GI50 was 17.4 µM.

Question: What about the TGI [13] of the same compound?
Answer: Its TGI is 41.6 µM.

Question: What about the GI50 [14] of the same compound?
Answer: Its GI50 is 2.84 µM.

Question: What about the TGI [14] of the same compound?
Answer: Its TGI is 13.3 µM.

Question: And the GI50 [15]?
Answer: Its GI50 is 16.6 µM.

Question: And the TGI [15]?
Answer: Its TGI is 33.5 µM.

Question: And the GI50 [16]?
Answer: The GI50 was 4.31 µM.

Question: And the TGI [16]?
Answer: The TGI was 16.2 µM.

Question: And the GI50 [17]?
Answer: Its GI50 is 14.8 µM.

Question: What about the TGI [17] of the same compound?
Answer: The TGI was 29 µM.

Question: And the GI50 [18]?
Answer: The GI50 was 15.9 µM.

Question: What about the TGI [18] of the same compound?
Answer: Its TGI is 29.5 µM.

Question: What about the GI50 [19] of the same compound?
Answer: The GI50 was 10.2 µM.

Question: And the TGI [19]?
Answer: Its TGI is 24 µM.

Question: And the GI50 [20]?
Answer: Its GI50 is 13.4 µM.

Question: And the TGI [20]?
Answer: The TGI was 28 µM.

Question: What about the GI50 [21] of the same compound?
Answer: Its GI50 is 10 µM.

Question: And the TGI [21]?
Answer: Its TGI is 37.5 µM.

Question: And the GI50 [22]?
Answer: Its GI50 is 9.26 µM.

Question: And the TGI [22]?
Answer: Its TGI is 26.2 µM.

Question: And the GI50 [23]?
Answer: Its GI50 is 15.9 µM.

Question: And the TGI [23]?
Answer: Its TGI is 31.8 µM.

Question: And the GI50 [24]?
Answer: The GI50 was 12 µM.

Question: What about the TGI [24] of the same compound?
Answer: Its TGI is 25.1 µM.

Question: What about the GI50 [25] of the same compound?
Answer: The GI50 was 14.9 µM.

Question: And the TGI [25]?
Answer: Its TGI is 31.8 µM.

Question: And the GI50 [26]?
Answer: The GI50 was 13.9 µM.

Question: What about the TGI [26] of the same compound?
Answer: The TGI was 27.1 µM.

Question: And the GI50 [27]?
Answer: The GI50 was 14.6 µM.

Question: And the TGI [27]?
Answer: The TGI was 28.5 µM.

Question: What about the GI50 [28] of the same compound?
Answer: Its GI50 is 17.3 µM.

Question: And the TGI [28]?
Answer: Its TGI is 32.4 µM.

Question: What about the GI50 [29] of the same compound?
Answer: Its GI50 is 13.8 µM.

Question: And the TGI [29]?
Answer: The TGI was 29 µM.

Question: What about the GI50 [30] of the same compound?
Answer: Its GI50 is 16.5 µM.

Question: And the TGI [30]?
Answer: The TGI was 30.6 µM.
